From patent publication US20210338717A1, “NANOPARTICLE DELIVERY TO A TARGET TISSUE” (THE GOVERNING COUNCIL OF THE UNIVERSITY OF TORONTO, priority 2020, published 2021)

Test system: 4T1 tumour-bearing BALB/c mice
Details: mouse, in vivo
Method: 6 week old female BALB/c mice were purchased (Charles River Laboratory BALB/cAnNCrl). 4T1 cells were a generous gift from Dr. Reginald Gorczynski. 4T1 tumours were induced as described^3 into 7-week old mice. Briefly, 1 million 4T1 cells between passages 3-20 in 100 μL of serum-free, antibiotic-free RPMI (Wisent Bioproducts 350-000-EL) were injected into the right inguinal 5th mammary fat pad using a 25G needle. The needle was inserted 1 mm lateral and 3 mm caudal to the nipple, and advanced towards the nipple by 2 mm. Mice were injected with nanoparticles 2 weeks post-induction unless specified otherwise. We aimed to investigate smaller tumours to minimize confounding by the necrotic core and maximize quantification accuracy. Tumour growth was homogeneous (average 14-day tumour size and standard deviation: 0.38±0.15 g). Tumours were size-matched between treatment groups to enable %ID and %ID/g comparisons between groups.
Mice were euthanized by isoflurane overdose followed by cervical dislocation at 2, 8, 24, or 72 hours post nanoparticle injection. Mouse organs were collected and weighed into borosilicate tubes for analysis by ICPMS^5,6. Collected organs included: heart, lungs, liver, spleen, stomach (with diet), large intestines (with diet), small intestines (with diet), kidneys, uterus, dorsal skin, and cardiac blood. For endpoint cardiac blood, mice hearts were quickly exposed by dissecting through the thoracic cavity. A 25G needle/1 mL syringe was inserted into the right ventricle of the beating heart. ˜600 μL cardiac blood was drawn then transferred to a glass tube. For reference, a control tube containing a known proportion of the injected dose was also prepared in a borosilicate tube. 800 μL of 16 M nitric acid (Caledon 7525-1-29) was added to each sample. They were digested at 80° C. in a water bath for 1 hour, and then digested overnight at 50° C. The next morning, 200 μL of 12 M hydrochloric acid (Caledon 6025-1-29) was added and the samples were digested at 80° C. for ≥1 hour. Samples were collected into polypropylene 50 mL centrifuge tubes (Biomart 110708) and then diluted to 40 mL in deionized water for a final acid concentration of 2.5% (v/v). 10 mL of these samples were then filtered through a 0.22 μm PES filter (Fisher Scientific SLGP033RS) into 15 mL centrifuge tubes (Sarstedt 62.554.002). A standard curve for elemental gold and magnesium were prepared by dilution in 2% (v/v) nitric acid and 0.5% (v/v) hydrochloric acid, with concentrations ranging from 0.0001 to 100 mg/mL, with a reference blank of 0. All samples were then quantified using a NexION 350x ICP-MS (PerkinElmer) with mass analyzer set to magnesium Mg 24, iridium Ir 192, and gold Au 197. A 500 μL injection loop was used, and each sample was mixed with carrier solution (2% (v/v) nitric acid) and iridium internal standard (1 μg/mL) before injection into the analyzer. Percent injected dose was the measured gold mass of each sample divided by the measured gold mass of the injected dose.

gold nanoparticles
increase in absolute accumulation in the liver: 6000 times | increase in absolute nanoparticle accumulation in tumour: 7,300,000 times | liver accumulation: 16 % injected dose/gram | liver accumulation, large single dose vs same dose divided: reduced | tumour accumulation: 16 % injected dose/gram | tumour delivery, large single dose vs same dose divided: increased
